Assay [1] has as its target T1, purified wild type MGL (wt-MGLL 6H-11-313) (Homo sapiens, UniProt Q99685).
T1 sequence (Q99685 1-303): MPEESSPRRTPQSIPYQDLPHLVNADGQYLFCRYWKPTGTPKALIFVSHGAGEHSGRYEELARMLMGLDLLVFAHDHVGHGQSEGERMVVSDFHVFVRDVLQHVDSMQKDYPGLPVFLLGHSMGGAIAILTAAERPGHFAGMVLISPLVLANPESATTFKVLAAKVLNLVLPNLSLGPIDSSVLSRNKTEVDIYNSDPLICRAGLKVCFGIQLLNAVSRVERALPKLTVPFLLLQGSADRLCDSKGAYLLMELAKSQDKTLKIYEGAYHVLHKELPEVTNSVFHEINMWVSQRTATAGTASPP

The target in a further assay is T2, mutant MGL (Homo sapiens, UniProt Q99685, L169S/L176S).
T2 sequence (Q99685 1-303 L169S/L176S): T1 sequence (Q99685 1-303) with L169S, L176S
The experiment in a line: MGL ThermoFluor assay - mutant. The assay is classed as binding.

The mark [2] stands for this setting: compound concentration measured by qNMR, read-out: MGL mutant ThermoFluor qKd (using qNMR conc.).
Where [3] appears, read: ThermoFluor concentration-response, read-out: MGL mutant ThermoFluor Kd.
The mark [4] stands for this setting: ThermoFluor, compound concentration measured by qNMR, read-out: MGL mutant ThermoFluor qKd (μM) (using qNMR conc.).
[5] abbreviates: ThermoFluor thermal stability binding assay, read-out: MGL mutant ThermoFluor Kd.
Setting [6] is: ThermoFluor, compound concentration measured by qNMR, read-out: MGL mutant ThermoFluor qKd (using qNMR conc.).

This is an account of results in patent US8362000B2, “Azetidinyl diamides as monoacylglycerol lipase inhibitors” (Janssen Pharmaceutica NV, priority 2009, dated 2013).

Numbering of substitutions follows the chain as printed. Where two headings read alike, the source gives them in different places.

For `O=C(c1ccc2c(cnn2Cc2cccc(C(F)(F)F)c2)c1)N1CC(N2CCN(C(=O)c3nccs3)CC2)C1` [Cpd 1038, 5-({3-[4-(1,3-Thiazol-2-ylcarbonyl)piperazin-1-yl]azetidin-1-yl}carbonyl)-1-[3-(trifluoromethyl)benzyl]-1H-indazole], in assay [1], the half-maximal inhibitory concentration (IC50) was less than 5 nM. Also, the Kd at mutant MGL (setting [2]) is 0.002 µM.

In the case of `COc1cccc2c(C)c(C(=O)N3CC(N4CCN(C(=O)c5cscn5)CC4)C3)[nH]c12` [Cpd 840], in assay [1], it took 5160 nM to reach half-maximal inhibition (IC50). For the same compound, the Kd at mutant MGL (setting [3]) was 2 µM.

In assay [1], `O=C(c1ccc(CS(=O)(=O)c2cccc(C(F)(F)F)c2)cc1)N1CC(N2CCN(C(=O)c3nccs3)CC2)C1` [Cpd 976, 1-(1,3-Thiazol-2-ylcarbonyl)-4-(1-{[4-({[3-(trifluoromethyl)phenyl]sulfonyl}methyl)phenyl]carbonyl}azetidin-3-yl)piperazine] displayed an IC50 of 574 nM. Moreover, the Kd on mutant MGL (setting [3]) is 1.84 µM.

`O=C(c1ccccc1)N1CCN(C2CN(C(=O)c3ccc4c(cnn4-c4ccc(C(F)(F)F)cc4)c3)C2)CC1` [Cpd 575, 5-({3-[4-(Phenylcarbonyl)piperazin-1-yl]azetidin-1-yl}carbonyl)-1-[4-(trifluoromethyl)phenyl]-1H-indazole] displayed an IC50 in assay [1] of 51 nM. Further, the Kd at mutant MGL (setting [4]) worked out at 0.083 µM.

`O=C(c1cc2ccc(-c3ccc(F)cc3)cc2[nH]1)N1CC(N2CCN(C(=O)c3nccs3)CC2)C1` [Cpd 1204] had an IC50 in assay [1] of 166 nM. For the same compound, the Kd on mutant MGL (setting [4]) was 0.249 µM.

The compound `O=C(Cn1ccc2cc(C(=O)N3CC(N4CCN(C(=O)c5nccs5)CC4)C3)ccc21)N1CCCC1` [Cpd 1035] gave a half-inhibitory concentration (IC50) in assay [1] of 4620 nM. Also, the Kd on mutant MGL (setting [2]) worked out at 1.01 µM.

In turn, `O=C(c1ccccc1)N1CCN(C2CN(C(=O)c3ccc(Oc4ccc(Cl)cn4)cc3)C2)CC1` [Cpd 520] yielded a half-inhibitory concentration (IC50) in assay [1] of 2030 nM. Moreover, on mutant MGL (setting [3]), the Kd was found to be 2 µM.

For the compound `Cc1c(C(=O)N2CC(N3CCN(C(=O)c4cscn4)CC3)C2)sc2nc(C(F)(F)F)ccc12` [Cpd 749], half-maximal inhibition in assay [1] (IC50) was put at 387 nM. The Kd on mutant MGL (setting [4]) came to 0.036 µM.

As for `CC(C)(C)OC(=O)N1CCc2cccc(C(=O)N3CC(N4CCN(C(=O)c5cscn5)CC4)C3)c2C1` [Cpd 861], inhibition in assay [1] was half-maximal at 9220 nM (IC50). For the same compound, the Kd on mutant MGL (setting [5]) was found to be 2.63 µM.

As for `O=C(c1ccc(-c2cccc(C(F)(F)F)c2)cc1)N1CCN(C2CN(C(=O)c3cc[nH]c3)C2)CC1` [Cpd 1243, 1-[1-(1H-Pyrrol-3-ylcarbonyl)azetidin-3-yl]-4-{[3′-(trifluoromethyl)biphenyl-4-yl]carbonyl}piperazine], the IC50 in assay [1] was 463 nM. In addition, the Kd at mutant MGL (setting [3]) is 0.033 µM.

`O=C(c1cscn1)N1CCN(C2CN(C(=O)c3cn(-c4cccc(F)c4)c4ccccc34)C2)CC1` [Cpd 1279]: the concentration for half-maximal inhibition (IC50) in assay [1] is 1900 nM. Also, the Kd on mutant MGL (setting [4]) was 1.86 µM.

For `Cc1c(C(=O)N2CC(N3CCN(C(=O)c4cscn4)CC3)C2)[nH]c2ccc(Cl)cc12` [Cpd 755], the 50% inhibitory concentration (IC50) in assay [1] is 468 nM. On mutant MGL (setting [3]), the Kd amounted to 0.328 µM.

`O=C(c1ccc2c(ccn2-c2ccc(F)cc2)c1)N1CC(N2CCN(C(=O)c3ccc(Cl)s3)CC2)C1` [Cpd 1423] returned an IC50 in assay [1] of 278 nM. Moreover, the Kd at mutant MGL (setting [4]) was found to be 0.176 µM.

Regarding `Cn1c2ccccc2c2cc(C(=O)N3CC(N4CCN(C(=O)c5nccs5)CC4)C3)ccc21` [Cpd 750], in assay [1], half-maximal inhibition (IC50) required 395 nM. Also, the Kd at mutant MGL (setting [3]) is 0.025 µM.

In assay [1], `Cc1c(C(=O)N2CCN(C3CN(C(=O)c4nc(C(F)(F)F)cs4)C3)CC2)sc2cc(C(F)(F)F)ccc12` [Cpd 814] returned a half-maximal inhibitory concentration (IC50) of 2430 nM. Also, the Kd at mutant MGL (setting [3]) is greater than 31 µM.

Take `O=C(c1ccccc1)N1CCN(C2CN(C(=O)c3sc4cc(Cl)ccc4c3C(F)(F)F)C2)CC1` [Cpd 512]: half-maximal inhibition in assay [1] (IC50) was put at 260 nM. In addition, the Kd at mutant MGL (setting [3]) stood at 0.05 µM.

`O=C(c1ccc(-c2ccccc2)cc1)N1CC(N2CCN(C(=O)c3cocn3)CC2)C1` [Cpd 1222]: the IC50 in assay [1] is 266 nM. Besides, at mutant MGL (setting [5]), the Kd amounted to 0.068 µM.

With `Cc1c(C(=O)N2CC(N3CCN(C(=O)c4nccs4)CC3)C2)oc2ccc(F)cc12` [Cpd 751], it took 402 nM to reach half-maximal inhibition in assay [1] (IC50). Moreover, the Kd at mutant MGL (setting [3]) was 1.32 µM.

In assay [1], `Cc1c(C(=O)N2CC(N3CCN(C(=O)c4cscn4)CC3)C2)cccc1-c1ccccc1` [Cpd 1285] gave an IC50 of 2320 nM. The Kd at mutant MGL (setting [3]) stood at 2.45 µM.

On to `O=C(c1ccc2cn(Cc3ccc(F)cc3)nc2c1)N1CC(N2CCN(C(=O)c3nccs3)CC2)C1` [Cpd 1052, 2-(4-Fluorobenzyl)-6-({3-[4-(1,3-thiazol-2-ylcarbonyl)piperazin-1-yl]azetidin-1-yl}carbonyl)-2H-indazole], for which, in assay [1], the IC50 worked out at 28 nM. Besides, at mutant MGL (setting [2]), the Kd amounted to 0.065 µM.

Take `O=C(c1cc[nH]c1)N1CCN(C2CN(C(=O)c3ccc(-c4cccc(C(F)(F)F)c4)cc3)C2)CC1` [Cpd 1324]: in assay [1], the IC50 is less than 5 nM. In addition, at mutant MGL (setting [5]), the Kd was determined as 0.016 µM.

The compound `O=C(c1ccccn1)N1CCN(C2CN(C(=O)c3sc4cc(F)ccc4c3Cl)C2)CC1` [Cpd 810] gave a half-inhibitory concentration (IC50) in assay [1] of 2140 nM. The Kd on mutant MGL (setting [5]) was found to be 0.29 µM.

In assay [1], `Cc1nc2cc(C(=O)N3CC(N4CCN(C(=O)c5nccs5)CC4)C3)ccc2n1C1CCCCC1` [Cpd 732] registered an IC50 of 239 nM. Also, the Kd at mutant MGL (setting [3]) was 0.002 µM.

The compound `Cc1cc(-n2ccc3cc(C(=O)N4CC(N5CCN(C(=O)c6ccccc6)CC5)C4)ccc32)ccc1C#N` [Cpd 566, 2-Methyl-4-[5-({3-[4-(phenylcarbonyl)piperazin-1-yl]azetidin-1-yl}carbonyl)-1H-indol-1-yl]benzonitrile] gave a concentration for half-maximal inhibition (IC50) in assay [1] of 14 nM. Also, at mutant MGL (setting [4]), the Kd stood at 0.031 µM.

Turning to `O=C(c1ccc2nc(C(F)(F)F)cc(Cl)c2c1)N1CCN(C2CN(C(=O)c3cscn3)C2)CC1` [Cpd 859], the IC50 in assay [1] amounted to 8820 nM. The Kd at mutant MGL (setting [3]) amounted to 1.43 µM.

In the case of `O=C(c1cscn1)N1CCN(C2CN(C(=O)c3nn(-c4ccc(Cl)cc4Cl)c4c3CCCC4)C2)CC1` [Cpd 1304], in assay [1], the IC50 came to 6030 nM. Also, on mutant MGL (setting [2]), the Kd came to 7.9 µM.

The compound `Cc1nc2ccc(Cl)cc2cc1C(=O)N1CC(N2CCN(C(=O)c3nccs3)CC2)C1` [Cpd 835] had a concentration for half-maximal inhibition (IC50) in assay [1] of 4700 nM. Moreover, at mutant MGL (setting [6]), the Kd came out at 2.45 µM.

In assay [1], `Cc1nc2cc(C(=O)N3CCN(C4CN(C(=O)c5nccs5)C4)CC3)ccc2n1C1CCCCC1` [Cpd 793] registered an IC50 of 1460 nM. Also, the Kd on mutant MGL (setting [3]) amounted to 0.198 µM.

In assay [1], `O=C(c1nccs1)N1CCN(C2CN(C(=O)c3ccc4c(ccn4-c4ccc(F)cc4)c3Cl)C2)CC1` [Cpd 1414, 4-Chloro-1-(4-fluorophenyl)-5-({3-[4-(1,3-thiazol-2-ylcarbonyl)piperazin-1-yl]azetidin-1-yl}carbonyl)-1H-indole] yielded an IC50 of 11 nM. The Kd at mutant MGL (setting [2]) was 0.003 µM.

`CC(C)n1c(C(F)(F)F)nc2cc(C(=O)N3CC(N4CCN(C(=O)c5cscn5)CC4)C3)ccc21` [Cpd 831] had an IC50 in assay [1] of 4100 nM. In addition, the Kd at mutant MGL (setting [3]) was found to be 0.27 µM.

In assay [1], `O=C(c1ccc2c(c1)CCN2Cc1ccccc1)N1CC(N2CCN(C(=O)c3nccs3)CC2)C1` [Cpd 994, 1-Benzyl-5-({3-[4-(1,3-thiazol-2-ylcarbonyl)piperazin-1-yl]azetidin-1-yl}carbonyl)-2,3-dihydro-1H-indole] showed a 50% inhibitory concentration (IC50) of 13 nM. In addition, the Kd at mutant MGL (setting [3]) turned out to be 0.002 µM.

In the case of `O=C(c1ccc2nc(C(F)(F)F)cc(Cl)c2c1)N1CCN(C2CN(C(=O)c3nccs3)C2)CC1` [Cpd 842], half-maximal inhibition in assay [1] (IC50) was put at 5530 nM. The Kd at mutant MGL (setting [3]) was 0.986 µM.

`O=C(c1ccc[nH]1)N1CC(N2CCN(C(=O)c3cc4cc(C(F)(F)F)ccc4s3)CC2)C1` [Cpd 722, 1-[1-(1H-Pyrrol-2-ylcarbonyl)azetidin-3-yl]-4-{[5-(trifluoromethyl)-1-benzothiophen-2-yl]carbonyl}piperazine] returned a 50% inhibitory concentration (IC50) in assay [1] of 180 nM. At mutant MGL (setting [3]), the Kd stood at 0.082 µM.

Compound `CCCCC/C=C\C/C=C\CCCCCCCC(=O)N1CC(N2CCN(C(=O)c3nccs3)CC2)C1` [Cpd 638] came in with a half-inhibitory concentration (IC50) in assay [1] of 189 nM. The Kd at mutant MGL (setting [3]) turned out to be 0.172 µM; at mutant MGL (setting [6]), 0.264 µM.

In assay [1], `Cc1cc2c(ccn2-c2ccc(F)cc2)cc1C(=O)N1CC(N2CCN(C(=O)c3nccs3)CC2)C1` [Cpd 1415] returned an IC50 of 115 nM. Also, the Kd on mutant MGL (setting [2]) turned out to be 0.011 µM.

In assay [1], `Cc1c(C(=O)N2CC(N3CCN(C(=O)c4nccs4)CC3)C2)c2ccccc2n1C` [Cpd 796] gave a half-inhibitory concentration (IC50) of 1530 nM. Moreover, the Kd on mutant MGL (setting [3]) was found to be 0.099 µM.

`O=C(c1ccc2c(ccn2-c2cccnc2)c1)N1CC(N2CCN(C(=O)c3ccc[nH]3)CC2)C1` [Cpd 1247, 1-Pyridin-3-yl-5-({3-[4-(1H-pyrrol-2-ylcarbonyl)piperazin-1-yl]azetidin-1-yl}carbonyl)-1H-indole] registered a 50% inhibitory concentration (IC50) in assay [1] of 539 nM. Moreover, the Kd at mutant MGL (setting [6]) was 0.65 µM.

As to `O=C(c1cc(Br)cs1)N1CC(N2CCN(C(=O)c3nccs3)CC2)C1` [Cpd 806], in assay [1], the concentration for half-maximal inhibition (IC50) is 2050 nM. The Kd at mutant MGL (setting [4]) was found to be 0.989 µM.

As to `O=C(c1ccccc1)N1CCN(C2CN(C(=O)c3sc4cc(F)ccc4c3C3CCC3)C2)CC1` [Cpd 513], 371 nM corresponded to half-maximal inhibition in assay [1] (IC50). Moreover, at mutant MGL (setting [3]), the Kd is 0.009 µM.

Broadly, the IC50 is the point on the concentration scale where inhibition reaches its midpoint.
